{"source": "ChEMBL document CHEMBL1649448", "about": "“Atorvastatin is a promising partner for antimalarial drugs in treatment of Plasmodium falciparum malaria” (Antimicrob Agents Chemother, 2009)", "assay_type_in_all_cases": "functional, organism-based", "key": {"[1]": {"test_system": "Plasmodium falciparum", "assay": "Antimalarial activity against Plasmodium falciparum IMT Guy assessed as incorporation of [3H]hypoxanthine after 48 hrs by scintillation counter"}, "[2]": {"test_system": "Plasmodium falciparum", "assay": "Antimalarial activity against Plasmodium falciparum IMT 16332 assessed as incorporation of [3H]hypoxanthine after 48 hrs by scintillation counter"}, "[3]": {"test_system": "Plasmodium falciparum", "assay": "Antimalarial activity against Plasmodium falciparum IMT Vol assessed as incorporation of [3H]hypoxanthine after 48 hrs by scintillation counter"}, "[4]": {"test_system": "Plasmodium falciparum", "assay": "Antimalarial activity against Plasmodium falciparum IMT Bres assessed as incorporation of [3H]hypoxanthine after 48 hrs by scintillation counter"}, "[5]": {"test_system": "Plasmodium falciparum", "assay": "Antimalarial activity against Plasmodium falciparum HB3 assessed as incorporation of [3H]hypoxanthine after 48 hrs by scintillation counter"}, "[6]": {"test_system": "Plasmodium falciparum", "assay": "Antimalarial activity against Plasmodium falciparum FCM29 assessed as incorporation of [3H]hypoxanthine after 48 hrs by scintillation counter"}, "[7]": {"test_system": "Plasmodium falciparum", "assay": "Antimalarial activity against Plasmodium falciparum HB3 harboring Ppcrt I371R mutant gene and Pfmdr1 Y184F mutant gene assessed as incorporation of [3H]hypoxanthine after 48 hrs by scintillation counter"}, "[8]": {"test_system": "Plasmodium falciparum", "assay": "Antimalarial activity against Plasmodium falciparum IMT K2 harboring Ppcrt M74I, N75E, K76T, A220S, Q271E, N326S mutant gene, Pmdr1 S1034C, N1042D mutant gene and Pfmrp H191Y and S437A mutant gene assessed as incorporation of [3H]hypoxanthine after 48 hrs by scintillation counter"}, "[9]": {"test_system": "Plasmodium falciparum", "assay": "Antimalarial activity against Plasmodium falciparum FCM29 harboring Ppcrt M74I, N75E, K76T, A220S, Q271E, N326S and I356T mutant gene, Pmdr1 N86Y mutant gene and Pfmrp H191Y and S437A mutant gene assessed as incorporation of [3H]hypoxanthine after 48 hrs by scintillation counter"}, "[10]": {"test_system": "Plasmodium falciparum", "assay": "Antimalarial activity against Plasmodium falciparum FCR3 assessed as incorporation of [3H]hypoxanthine after 48 hrs by scintillation counter"}, "[11]": {"test_system": "Plasmodium falciparum", "assay": "Antimalarial activity against Plasmodium falciparum IMT 31 assessed as incorporation of [3H]hypoxanthine after 48 hrs by scintillation counter"}, "[12]": {"test_system": "Plasmodium falciparum", "assay": "Antimalarial activity against Plasmodium falciparum IMT K4 assessed as incorporation of [3H]hypoxanthine after 48 hrs by scintillation counter"}, "[13]": {"test_system": "Plasmodium falciparum", "assay": "Antimalarial activity against Plasmodium falciparum D6 harboring Ppcrt I371R mutant gene assessed as incorporation of [3H]hypoxanthine after 48 hrs by scintillation counter"}, "[14]": {"test_system": "Plasmodium falciparum", "assay": "Antimalarial activity against Plasmodium falciparum IMT 10336 harboring Pfcrt Q271E mutant gene and Ppcrt I371R mutant gene assessed as incorporation of [3H]hypoxanthine after 48 hrs by scintillation counter"}, "[15]": {"test_system": "Plasmodium falciparum", "assay": "Antimalarial activity against Plasmodium falciparum W2 harboring Ppcrt M74I, N75E, K76T, A220S, Q271E, N326S and I356T mutant gene, Pmdr1 N86Y mutant gene and Pfmrp H191Y and S437A mutant gene assessed as incorporation of [[3H]hypoxanthine after 48 hrs by scintillation counter"}, "[16]": {"test_system": "Plasmodium falciparum", "assay": "Antimalarial activity against Plasmodium falciparum IMT K14 harboring Ppcrt M74I, N75E, K76T, A220S, Q271E, N326S mutant gene, Pmdr1 Y184F, S1034C, N1042D, D1246Y mutant gene and Pfmrp H191Y and S437A mutant gene assessed as incorporation of [3H]hypoxanthine after 48 hrs by scintillation counter"}, "[17]": {"test_system": "Plasmodium falciparum", "assay": "Antimalarial activity against Plasmodium falciparum IMT 10336 assessed as incorporation of [3H]hypoxanthine after 48 hrs by scintillation counter"}, "[18]": {"test_system": "Plasmodium falciparum", "assay": "Antimalarial activity against Plasmodium falciparum IMT A4 assessed as incorporation of [3H]hypoxanthine after 48 hrs by scintillation counter"}, "[19]": {"test_system": "Plasmodium falciparum", "assay": "Antimalarial activity against Plasmodium falciparum 3D7 harboring Ppcrt I371R mutant gene and Pfnhe-1 ms4760 microsatellite mutant assessed as incorporation of [3H]hypoxanthine after 48 hrs by scintillation counter"}, "[20]": {"test_system": "Plasmodium falciparum", "assay": "Antimalarial activity against Plasmodium falciparum IMT 8425 assessed as incorporation of [3H]hypoxanthine after 48 hrs by scintillation counter"}, "[21]": {"test_system": "Plasmodium falciparum", "assay": "Antimalarial activity against Plasmodium falciparum 106/1 harboring Ppcrt M74I, N75E, K76T, A220S, Q271E, N326S and I356T mutant gene, Pmdr1 N86Y mutant gene and Pfmrp H191Y and S437A mutant gene assessed as incorporation of [3H]hypoxanthine after 48 hrs by scintillation counter"}, "[22]": {"test_system": "Plasmodium falciparum", "assay": "Antimalarial activity against Plasmodium falciparum W2 assessed as incorporation of [3H]hypoxanthine after 48 hrs by scintillation counter"}, "[23]": {"test_system": "Plasmodium falciparum", "assay": "Antimalarial activity against Plasmodium falciparum IMT 8425 harboring Ppcrt I371R mutant gene and Pfnhe-1 ms4760 microsatellite mutant assessed as incorporation of [3H]hypoxanthine after 48 hrs by scintillation counter"}, "[24]": {"test_system": "Plasmodium falciparum", "assay": "Antimalarial activity against Plasmodium falciparum IMT K14 assessed as incorporation of [3H]hypoxanthine after 48 hrs by scintillation counter"}, "[25]": {"test_system": "Plasmodium falciparum", "assay": "Antimalarial activity against Plasmodium falciparum IMT Guy harboring Ppcrt K76T, A220S, N326D and I371R mutant gene, Pmdr1 T184FN, 1042D and D1246Y, mutant gene and Pfmrp H191Y and S437A mutant gene and Pfnhe-1 ms4760 microsatellite mutant assessed as incorporation of [3H]hypoxanthine after 48 hrs by scintillation counter"}, "[26]": {"test_system": "Plasmodium falciparum", "assay": "Antimalarial activity against Plasmodium falciparum PA harboring Ppcrt M74I, N75E, K76T, A220S, Q271E, N326S and I356T mutant gene, Pmdr1 N86Y mutant gene and Pfmrp H191Y and S437A mutant gene assessed as incorporation of [3H]hypoxanthine after 48 hrs by scintillation counter"}, "[27]": {"test_system": "Plasmodium falciparum", "assay": "Antimalarial activity against Plasmodium falciparum IMT 10500 assessed as incorporation of [3H]hypoxanthine after 48 hrs by scintillation counter"}, "[28]": {"test_system": "Plasmodium falciparum", "assay": "Antimalarial activity against Plasmodium falciparum IMT 9881 assessed as incorporation of [3H]hypoxanthine after 48 hrs by scintillation counter"}, "[29]": {"test_system": "Plasmodium falciparum", "assay": "Antimalarial activity against Plasmodium falciparum IMT L1 harboring Ppcrt M74I, N75E, K76T, A220S, Q271E mutant gene, Pmdr1 N86Y mutant gene and Pfmrp H191Y and S437A mutant gene assessed as incorporation of [3H]hypoxanthine after 48 hrs by scintillation counter"}, "[30]": {"test_system": "Plasmodium falciparum", "assay": "Antimalarial activity against Plasmodium falciparum 3D7 assessed as incorporation of [3H]hypoxanthine after 48 hrs by scintillation counter"}, "[31]": {"test_system": "Plasmodium falciparum", "assay": "Antimalarial activity against Plasmodium falciparum IMT Bres harboring Ppcrt M74I, N75E, K76T, A220S, Q271E, N326S and I356T mutant gene, Pmdr1 N86Y mutant gene and Pfmrp H191Y and S437A mutant gene assessed as incorporation of [3H]hypoxanthine after 48 hrs by scintillation counter"}, "[32]": {"test_system": "Plasmodium falciparum", "assay": "Antimalarial activity against Plasmodium falciparum FCR3 harboring Ppcrt M74I, N75E, K76T, A220S, Q271E, N326S and I356T mutant gene, Pmdr1 N86Y mutant gene and Pfmrp H191Y and S437A mutant gene assessed as incorporation of [3H]hypoxanthine after 48 hrs by scintillation counter"}, "[33]": {"test_system": "Plasmodium falciparum", "assay": "Antimalarial activity against Plasmodium falciparum IMT L1 assessed as incorporation of [3H]hypoxanthine after 48 hrs by scintillation counter"}}}
{"smiles": "CC(C)c1c(C(=O)Nc2ccccc2)c(-c2ccccc2)c(-c2ccc(F)cc2)n1CC[C@@H](O)C[C@@H](O)CC(=O)O", "note": "[ATORVASTATIN]", "values": [{"measurement": "IC50", "setting": "[1]", "result": 2500, "unit": "nM"}, {"measurement": "IC50", "setting": "[2]", "result": 2500, "unit": "nM"}, {"measurement": "IC50", "setting": "[3]", "result": 2500, "unit": "nM"}, {"measurement": "IC50", "setting": "[4]", "result": 2500, "unit": "nM"}, {"measurement": "IC50", "setting": "[5]", "result": 2500, "unit": "nM"}, {"measurement": "IC50", "setting": "[6]", "result": 2500, "unit": "nM"}, {"measurement": "IC50", "setting": "[7]", "result": 10.8, "unit": "µM"}, {"measurement": "IC50", "setting": "[8]", "result": 8.6, "unit": "µM"}, {"measurement": "IC50", "setting": "[9]", "result": 5.9, "unit": "µM"}, {"measurement": "IC50", "setting": "[10]", "result": 2500, "unit": "nM"}, {"measurement": "IC50", "setting": "[11]", "result": 2500, "unit": "nM"}, {"measurement": "IC50", "setting": "[12]", "result": 2500, "unit": "nM"}, {"measurement": "IC50", "setting": "[13]", "result": 5.9, "unit": "µM"}, {"measurement": "IC50", "setting": "[14]", "result": 6.9, "unit": "µM"}, {"measurement": "IC50", "setting": "[15]", "result": 5.9, "unit": "µM"}, {"measurement": "IC50", "setting": "[16]", "result": 6.9, "unit": "µM"}, {"measurement": "IC50", "setting": "[17]", "result": 2500, "unit": "nM"}, {"measurement": "IC50", "setting": "[18]", "result": 2500, "unit": "nM"}, {"measurement": "IC50", "setting": "[19]", "result": 9, "unit": "µM"}, {"measurement": "IC50", "setting": "[20]", "result": 2500, "unit": "nM"}, {"measurement": "IC50", "setting": "[21]", "result": 8, "unit": "µM"}, {"measurement": "IC50", "setting": "[22]", "result": 2500, "unit": "nM"}, {"measurement": "IC50", "setting": "[23]", "result": 9.7, "unit": "µM"}, {"measurement": "IC50", "setting": "[24]", "result": 2500, "unit": "nM"}, {"measurement": "IC50", "setting": "[25]", "result": 7.1, "unit": "µM"}, {"measurement": "IC50", "setting": "[26]", "result": 8.2, "unit": "µM"}, {"measurement": "IC50", "setting": "[27]", "result": 2500, "unit": "nM"}, {"measurement": "IC50", "setting": "[28]", "result": 2500, "unit": "nM"}, {"measurement": "IC50", "setting": "[29]", "result": 8.2, "unit": "µM"}, {"measurement": "IC50", "setting": "[30]", "result": 2500, "unit": "nM"}, {"measurement": "IC50", "setting": "[31]", "result": 5.8, "unit": "µM"}, {"measurement": "IC50", "setting": "[32]", "result": 8.7, "unit": "µM"}, {"measurement": "IC50", "setting": "[33]", "result": 2500, "unit": "nM"}]}
